One block for each compound: values may come before it.
Tests used:
A549 [1] = experiment: Cytotoxicity against human A549 Cells by MTT assay; type: functional, cell-based
AGS [2] = experiment: Cytotoxicity against human AGS Cells by MTT assay; type: functional, cell-based
MCF7 [3] = experiment: Cytotoxicity against human MCF7 Cells after 48 hrs by MTS assay; type: functional, cell-based; settings: MCF7, 48 h
[4] = Cytotoxicity against human CCD-1059SK Cells after 48 hrs by MTS assay; type: functional
[5] = Cytotoxicity against mitoxantrone resistant […] cells expressing BCRP after 15 mins by fluorescence assay; type: functional, cell-based; settings: Canis lupus familiaris, MDCK2, 0.25 h
HCT-116 [6] = experiment: Antitumor activity against human HCT116 cells after 72 hrs by FMCA method; type: functional, cell-based; settings: HCT-116, 72 h, pooled result: one value given for 5 cell lines, strains, targets or settings
EA.hy 926 = experiment: Cytotoxicity against human EAhy926 Cells after 72 hrs by MTT assay; type: functional, cell-based; settings: EA.hy 926, 72 h
CHO-K1 = experiment: Cytotoxicity against […] Cells after 72 hrs by MTT assay; type: functional, cell-based; settings: Cricetulus griseus, CHO-K1, 72 h
Caco-2 = experiment: Cytotoxicity against human Caco2 Cells after 72 hrs by MTT assay; type: functional, cell-based; settings: Caco-2, 72 h
HepG2 [7] = experiment: Cytotoxicity against human HepG2 Cells after 72 hrs by MTT assay; type: functional, cell-based; settings: HepG2, 72 h
HT-29 [8] = experiment: Cytotoxicity against human HT-29 Cells after 72 hrs by MTT assay; type: functional, cell-based; settings: HT-29, 72 h
HeLa [9] = experiment: Anticancer activity against human HeLa cells; type: functional, cell-based
HT-29 [10] = experiment: Cytotoxicity against human HT-29 Cells; type: functional, cell-based
MCF7 [11] = experiment: Cytotoxicity against human MCF7 Cells after 48 hrs by neutral red dye-based assay; type: functional, cell-based; settings: MCF7, 48 h
SW-620 = experiment: Cytotoxicity against human SW620 Cells; type: functional, cell-based
SW480 = experiment: Cytotoxicity against human SW480 Cells after 24 to 48 hrs by MTT assay; type: functional, cell-based
K562 = experiment: Cytotoxicity against human K562 Cells after 24 to 48 hrs by MTT assay; type: functional, cell-based
A549 [12] = experiment: Cytotoxicity against human A549 Cells after 24 to 48 hrs by MTT assay; type: functional, cell-based
SMMC-7721 = experiment: Anticancer activity against human SMMC7721 cells after 72 hrs by MTT assay; type: functional, cell-based; settings: SMMC-7721, 72 h
[13] = Anticancer activity against human LX2 cells after 72 hrs by MTT assay; type: functional, cell-based; settings: LX-2, 72 h
MDA-MB-231 = experiment: Anticancer activity against human MDA-MB-231 cells after 72 hrs by MTT assay; type: functional, cell-based; settings: MDA-MB-231, 72 h
HepG2 [14] = experiment: Cytotoxicity against human HepG2 Cells after 48 hrs by MTT assay; type: functional, cell-based; settings: HepG2, 48 h
MCF7 [15] = experiment: Cytotoxicity against human MCF7 Cells after 48 hrs by MTT assay; type: functional, cell-based; settings: MCF7, 48 h
[16] = Cytotoxicity against human LX2 Cells after 48 hrs by MTT assay; type: functional; settings: LX-2, 48 h
NIH3T3 = experiment: Cytotoxicity against mouse 3T3 Cells after 48 hrs by MTT assay; type: functional, cell-based; settings: NIH3T3, 48 h
SK-OV-3 = experiment: Cytotoxicity against human SKOV3 Cells after 48 hrs by Cell Titer Blue assay; type: functional, cell-based; settings: SK-OV-3, 48 h
HCT-116 [17] = experiment: Growth inhibition of human HCT116 cells relative to control; type: functional
KBM5 = experiment: Growth inhibition of human KBM5 cells relative to control; type: functional
HCT-116 [18] = experiment: Cytotoxicity against human HCT116 Cells; type: functional, cell-based
HeLa [19] = experiment: Cytotoxicity against human HeLa Cells; type: functional, cell-based
AGS [20] = experiment: Cytotoxicity against human AGS Cells; type: functional, cell-based
HepG2 [21] = experiment: Cytotoxicity against human HepG2 Cells; type: functional, cell-based

SMILES: COc1cc(/C=C/C(=O)/C(CNc2ccc(S(N)(=O)=O)cc2)=C(O)/C=C/c2ccc(O)c(OC)c2)ccc1O
IC50 (A549 [1]): 1.29 µM
IC50 (AGS [2]): 10.2 µM

SMILES: COc1ccc(/C=N/NC(=O)/C=C/c2ccc(O)c(OC)c2)cc1
IC50 (MCF7 [3]): 40.5 µM
IC50 [4]: 158 µM

SMILES: COc1cc(/C=C2\CNC/C(=C\c3ccc(O)c(OC)c3)C2=O)ccc1O
IC50 [5]: 4.3 µM

IC50 (HCT-116 [6]): 0.246 µM
SMILES: CCCC(=O)Oc1ccc(/C=C2\CN(C(C)=O)C/C(=C\c3ccc(OC(=O)CCC)c(OC)c3)C2=O)cc1OC

SMILES: COc1cc(F)c(/C=C2\CNC/C(=C\c3cc(OC)c(OC)cc3F)C2=O)cc1OC
IC50 [5]: 5.2 µM

SMILES: O=C(/C=C(O)/C=C/c1ccc[nH]1)/C=C/c1ccc[nH]1
IC50 (EA.hy 926): 8.3 µM
IC50 (CHO-K1): 6.9 µM
IC50 (Caco-2): 7.5 µM
IC50 (HepG2 [7]): 8.2 µM
IC50 (HT-29 [8]): 8.9 µM

IC50 (HeLa [9]): 0.5 µM
SMILES: COc1cc(/C=C/C(=O)/C=C(O)/C=C/c2ccc(OCC(=O)NCC(=O)O)c(OC)c2)ccc1OCC(=O)NCC(=O)O

SMILES: O=C(/C=C(O)/C=C/c1c[nH]c2ccccc12)/C=C/c1c[nH]c2ccccc12
IC50 (EA.hy 926): 11.7 µM
IC50 (CHO-K1): 7.9 µM
IC50 (Caco-2): 3.3 µM
IC50 (HepG2 [7]): 10 µM
IC50 (HT-29 [8]): 11.5 µM

SMILES: COc1cc(/C=C/C(=O)CC(=O)/C=C/c2ccc(OC3O[C@H](CO)[C@@H](O)[C@H](O)[C@H]3O)c(OC)c2)ccc1OC1O[C@H](CO)[C@@H](O)[C@H](O)[C@H]1O (stereo partly specified)
IC50 (HT-29 [10]): 41.6 µM

SMILES: CC/C(=C(\c1ccccc1)c1ccc(OCCN(C)C)cc1)c1ccccc1 [TAMOXIFEN]
IC50 (MCF7 [11]): 4 µM

IC50 (HCT-116 [6]): 0.207 µM
SMILES: CCCOc1ccc(/C=C2\CN(C(=S)c3ccccc3)C/C(=C\c3ccc(OCCC)c(OC)c3)C2=O)cc1OC

SMILES: O=C(/C=C(\O)c1ccccc1)c1ccccc1O [2',beta-DIHYDROXYCHALCONE]
IC50 (HT-29 [10]): 7.5 µM
IC50 (SW-620): 14.5 µM

SMILES: O=C(/C=C(O)/C=C/c1cccnc1)/C=C/c1cccnc1
IC50 (EA.hy 926): 7.9 µM
IC50 (CHO-K1): 7.2 µM
IC50 (Caco-2): 6.9 µM
IC50 (HepG2 [7]): 8.3 µM
IC50 (HT-29 [8]): 8.2 µM

SMILES: COc1ccc(/C=C/C(=O)/C(CNc2ccc(S(N)(=O)=O)cc2)=C(O)/C=C/c2ccc(OC)cc2)cc1
IC50 (A549 [1]): 6.25 µM
IC50 (AGS [2]): 11.9 µM

IC50 (HeLa [9]): 0.5 µM
SMILES: O=C(/C=C(O)/C=C/c1ccc(OCC(=O)NCC(=O)O)cc1)/C=C/c1ccc(OCC(=O)NCC(=O)O)cc1

SMILES: O=C(/C=C/c1c[nH]c2ccccc12)CC(=O)/C=C/c1c[nH]c2ccccc12
IC50 (SW480): 7 to 9 µM
IC50 (K562): 32 to 34 µM
IC50 (A549 [12]): 25 to 27 µM

IC50 (SMMC-7721): 0.18 µM
IC50 (MDA-MB-231): 0.52 µM
SMILES: COc1cc(/C=C/C(=O)CC(=O)/C=C/c2ccc(OC(=O)C(N)CC[Se]C)c(OC)c2)ccc1O (stereo unspecified)
IC50 [13]: 0.62 µM
IC50 (HepG2 [7]): 0.31 µM

IC50 (HCT-116 [6]): 0.19 µM
SMILES: CCCC(=O)Oc1ccc(/C=C2\CN(C(=O)c3ccccc3)C/C(=C\c3ccc(OC(=O)CCC)c(OCC)c3)C2=O)cc1OCC

SMILES: COc1ccc(/C=C/C(=O)Oc2ccc(/C=C/C(=O)CC(=O)/C=C/c3ccc(OC(=O)/C=C/c4ccc(OC)c(O)c4)c(OC)c3)cc2OC)cc1O
IC50 (HepG2 [14]): 0.58 µM
IC50 (MCF7 [15]): 0.51 µM
IC50 [16]: 0.63 µM
IC50 (NIH3T3): 0.79 µM

SMILES: COc1ccc(/C=C/C(=O)/C=C(O)/C=C/c2ccc(OC)c(O)c2)cc1O
IC50 (SK-OV-3): 5.58 µM

SMILES: COc1ccc(NC(=O)COc2ccc(/C=C/C(=O)/C=C/c3ccc(OCC(=O)Nc4ccc(OC)cc4)c(OC)c3)cc2OC)cc1
growth inhibition (GI) (HCT-116 [17]): 57.96%
growth inhibition (GI) (KBM5): 83.63%

SMILES: COc1ccc(OC)c(/C=C2\CNC/C(=C\c3cc(OC)ccc3OC)C2=O)c1
IC50 [5]: 1.2 µM

SMILES: COc1cc(/C=C/C(=O)CC(=O)/C=C/c2ccc(OC3O[C@H](CO)[C@@H](O)[C@H](O)[C@H]3O)c(OC)c2)ccc1O (stereo partly specified)
IC50 (HCT-116 [18]): 5.4 µM
IC50 (HeLa [19]): 12.5 µM
IC50 (AGS [20]): 5.86 µM
IC50 (HepG2 [21]): 18.6 µM

SMILES: COc1cc(/C=C/C(=O)N/N=C/c2ccc(O)c(OC)c2)ccc1O
IC50 (MCF7 [3]): 43 µM
IC50 [4]: 74.6 µM

SMILES: COc1cc(/C=C/C(=O)/C=C/c2ccc(OCC(=O)Nc3ccccc3)c(OC)c2)ccc1OCC(=O)Nc1ccccc1
growth inhibition (GI) (HCT-116 [17]): 60.13%
growth inhibition (GI) (KBM5): 86.76%

SMILES: COc1ccc(/C=C/C(=O)/C=C(O)/C=C/c2ccc(OC)c(OC)c2)cc1OC
IC50 (SK-OV-3): 3.51 µM

From ChEMBL document CHEMBL4364241, “Developments in the anticancer activity of structurally modified curcumin: An up-to-date review” (Eur J Med Chem, 2019)
